Experiments:
[1] = tested on: Src-YF expressing cell line ZM77.8; test: CTB and ATP cell viability/metabolic activity assays, suppression of tet-induced reduction; assay type: cell-based, human; conditions: ZM77.8 (Src-YF), 5µM PP2 + 10µM PP1-Chr., 40µM D5, 1µM 17-AAG, 1µM radicicol
Excerpt: (§1) To proof the concept of the assay platform according to the invention in a quantitative manner with a highly parallel readout, the following cell viability / metabolic activity assays from Promega according to the manufacturer's protocols: "CellTiter 96 AQueous One Solution Cell Proliferation Assay (MTS)", CellTiter-BlueTM Cell Viability Assay (CTB), and the ATP-status assay "CellTiter-Glo Luminescent Cell Viability Assay" (ATP) were used to obtain quantitative values reflecting (aspects of) the phenotype changes. The cells were seeded into white-walled/ clear bottom 96-well plates ["MICROTEST" by Falcon, cat.no. 353947] for MTS and ATP assays and in black-walled/ clear bottom 96-well plates ["MICROTEST" by Falcon, cat.no. 353948] for the CTB assay at the appropriate densities. Tet and/or compound addition (where applicable) was started the next day. Measurements were taken 1,2 and 3 days later using the Wallac Victor^2TM multilabel plate reader (Perkin Elmer). Absorbance was measured at 490nm (MTS). Luminescence mode was used for the ATP assay. For CTB fluorescence excitation wavelength was 550nm (filter: 550(20)nm), emission wavelength was 590 nm (filter: 590(20)nm). Indicated are the means of sixplicate determinations (from 6 independent wells) in the absence of tet (mean(-tet)) and in the presence of tet (mean(+tet)), followed by the respective corresponding standard deviations SD(-tet) and SD(+tet). The cell viability/ metabolic activity upon tet-induction in relation to the cell viability/ metabolic activity without tet ("+/tet(means") is calculated from the quotient of the means of the measured cell viability/ metabolic activity signals from i) cells incubated without tet and ii) cells incubated with tet. […] Furthermore indicated are the corresponding Z' values. In the present context: Z'=1-(3(SD(+tet)+SD(-tet))/ |mean(+tet)-mean(-tet)|. […] SD=0) (Zhang et al., 1999). Z'≥0 is required for an assay useful for a screening approach; a Z'≥0.5 is considered excellent for an assay with regard to high throughput screening. […] Three more parameters reflecting the effects of compounds on cell viability/metabolic activity in these assays are indicated in Tab.3 and Tab.4: Toxicity reflects the nonspecific (i.e. irrespective of tet-induced Src/ Src mutant expression) effects of a compound on the viability/ metabolic activity of the cells. It is calculated as toxicity=1-mean(-tet, compound)/mean(-tet,(DMSO)). […] The suppression value quantifies the potency of a compound with respect to suppression of the tet-induced change in cell viability / metabolic activity. Usually, tet-induction reduces cell viability / metabolic activity due to Src activity and addition of a Src inhibitory compound mitigates this reduction. A suppression of 100% means that the compound totally suppresses the tet-induced decrease in cell viability / metabolic activity (as in the absence of tet). The following formula is employed: Suppres-sion=([…]). Finally, the corresponding Z' value is calculated as follows: Z'(suppression)=1- 3([…]). The factor Qtox corrects the means and SD determined in the absence of a compound for the (nonspecific) toxicity effect of the respective compound, which would otherwise overlay and obscure the specific suppression, if toxicity is not neglectable. […] On each day 4 measurements are taken (1, 2, 3 and 4 h after the addition of the CTB assay reagents). […]

[2] = tested on: Src-TQ/YF expressing cell line ZM170.21; test: as above; assay type: cell-based, human; conditions: ZM170.21 (Src-TQ/YF), 5µM PP2 + 10µM PP1-Chr., 40µM D5, 1µM 17-AAG, 1µM radicicol
Excerpt: as §1

[3] = tested on: Src-YF expressing ZM77 cell lines; test: Suppression of tet-induced phenotype changes (cell scattering) in suspension, Ultra Low Attachment plates; assay type: cell-based, human; conditions: Ultralow Attachment Plates
Description: (§2) Cells were seeded into 24-well or 96-well "Ultra Low Attachment" plates (cat.no.: 3473, Costar Corning Corp., Acton, MA, USA). These plates are coated with a covalently bound hydrogel layer that prevents cellular attachment to the polystyrene surface of the wells. As the cells were not attached to these wells, a medium change was impossible here. However, the phenotypes were tested in full serum-containing medium in the absence or presence of EGF, PDGF-BB or HGF as detailed above. Tet-induction was also started the day after seeding.
(§3) Largely irrespective of the cell numbers per well, the cells of all cell lines were in suspension and formed one or few very condensed/compact, opaque, rod-, disc- or kidney-shaped aggregates with a smooth surface, in which individual cells could not be discerned. Phenotype changes became apparent ~24 h after tet induction in ZM77 and ZM170 cell lines only, and Δpt(-tet →+tet)max was reached after ~2 days. In these cell lines Src-YF or Src-TQ/YF expression, respectively, induces scattering of the cells. Many cells are floating in the medium individually or in small clusters and the remaining large aggregate(s) are irregular-shaped and rather loose than compact; individual cells can easily be discerned and thus, the surfaces of these aggregates are rough as with bunches of grapes (Fig.14a,b). This biological response was readily observed with or without any of the above growth factors, wherefore normal growth medium without any additional growth factor was subsequently used in this assay type.
(§4) To that end, the test compounds PP1-Chr., SU6656 and PP2 were individually added to the cells together with tet, and the development of the phenotype changes in the presence of these compounds was monitored subsequently in direct comparison with tet-induced cells that received no compound (Fig.14c-j). The compounds were also added to the cells without tet-induction of Src/ Src mutant expression as controls for non-specific/ toxicity effects. The experiments were performed with several ZM77 cell lines.

[4] = tested on: Src-TQ/YF expressing cell line ZM170.21; test: as above; assay type: cell-based, human; conditions: ZM170.21 (Src-TQ/YF) in suspension, Ultralow Attachment Plates
Description: as §2, §3, §4

[5] = tested on: Src-YF expressing ZM77 cell lines; test: Suppression of tet-induced phenotype changes, evaluated by eye/microscope, normal cell culture plates; assay type: cell-based, human; conditions: adherent, serum-containing medium
Description: Phenotype changes -tet → +tet were evaluated in 24-well plates (Nunc; cat.no. 143982) under the following several different growth conditions to identify the strongest possible response (Δpt(-tet→+tet)max) 1. full (10% serum containing) growth medium a) without any growth factor supplement (-), b) with epidermal growth factor (EGF; 100ng/ml) (cat.no. 115, Research Diagnostics Inc. (RDI), Flanders, NJ, USA) or c) platelet derived growth factor type BB (PDGF-BB; 30ng/ml) (cat.no. 114b, RDI) or d) hepatocyte growth factor (HGF; 20ng/ml) (RDI, cat.no.300-010), or 2. serum-free medium a) - or b) +EGF or c) +PDGF or d) +HGF. In all cases, cells were first seeded into standard 24-well or 96-well plates (Nunc) in full growth medium. The cell number seeded per well was also varied to identify the most suitable cell densities producing Δpt(-tet→+tet)max. […]
To that end, the test compounds PP1-Chr., PP2 (cat.no. 529573, Calbiochem) and SU6656 (cat.no. 572635, Calbiochem) (see Fig.9p for chemical structures) were individually added to the cells together with tet, and the development of the phenotype changes in the presence of these compounds was monitored subsequently in direct comparison with cells that received no compound or only vehicle (0.2% DMSO) together with tet induction. […]

[6] = tested on: Abl-TQ; conditions: cited from earlier work
[7] = tested on: Src family kinases when they carry the respective TQ mutations; conditions: cited from earlier work
[8] = tested on: cell line ZM76.3 (Src-KA); test: CTB cell viability assay, suppression of tet-induced reduction; assay type: cell-based, human; conditions: ZM76.3, CTB assay
Excerpt: To proof the concept of the assay platform according to the invention in a quantitative manner with a highly parallel readout, the following cell viability / metabolic activity assays from Promega according to the manufacturer's protocols: "CellTiter 96 AQueous One Solution Cell Proliferation Assay (MTS)", CellTiter-BlueTM Cell Viability Assay (CTB), and the ATP-status assay "CellTiter-Glo Luminescent Cell Viability Assay" (ATP) were used to obtain quantitative values reflecting (aspects of) the phenotype changes. The cells were seeded into white-walled/ clear bottom 96-well plates ["MICROTEST" by Falcon, cat.no. […] Measurements were taken 1,2 and 3 days later using the Wallac Victor^2TM multilabel plate reader (Perkin Elmer). Absorbance was measured at 490nm (MTS). Luminescence mode was used for the ATP assay. For CTB fluorescence excitation wavelength was 550nm (filter: 550(20)nm), emission wavelength was 590 nm (filter: 590(20)nm). […] The cell viability/ metabolic activity upon tet-induction in relation to the cell viability/ metabolic activity without tet ("+/tet(means") is calculated from the quotient of the means of the measured cell viability/ metabolic activity signals from i) cells incubated without tet and ii) cells incubated with tet. […] It is calculated as toxicity=1-mean(-tet, compound)/mean(-tet,(DMSO)). […]

Compound | suppression of the tet-induced reductions of the cell viability/ metabolic activity (+/-tet(means)-values) [1] | suppression of the +/-tet(means)-values [2] | suppression of tet-induced phenotype changes (cell scattering) [3] | suppression of tet-induced phenotype (cell scattering) [4] | also measured
C=CCNC1=C2C[C@@H](C)C[C@H](OC)[C@H](O)[C@@H](C)/C=C(\C)[C@H](OC(N)=O)[C@@H](OC)/C=C\C=C(/C)C(=O)NC(=CC1=O)C2=O [17-AAG] | equally effective | equally effective | suppress to a large extent | suppress to a large extent | 
CN(C)S(=O)(=O)c1ccc2c(c1)/C(=C/c1cc3c([nH]1)CCCC3)C(=O)N2 [SU6656] |  |  | partially suppressed |  | suppression of tet-induced phenotype changes [5]: partially suppressed
Cc1ccc(NC(=O)c2ccc(CN3CCN(C)CC3)cc2)cc1Nc1nccc(-c2cccnc2)n1 [Gleevec®] |  |  |  |  | inhibition of Abl-TQ [6]: does not inhibit
Cc1ccc(-c2nn(C(C)(C)C)c3ncnc(N)c23)cc1 [PP1] |  |  |  |  | inhibition of Src family kinases carrying the TQ mutations [7]: do not inhibit
C[C@@H]1C[C@H]2O[C@@H]2/C=C\C=C\C(=O)Cc2c(Cl)c(O)cc(O)c2C(=O)O1 [Radicicol, radicicol] | equally effective | equally effective | suppress to a large extent | suppress to a large extent | suppression of the Src-KA-induced phenotype [8]: effectively suppressing
